Values quoted from earlier work as cited in patent publication US20110263720A1, “SYNTHESIS OF ALPHA-TOCOPHEROLQUINONE DERIVATIVES, AND METHODS OF USING THE SAME” (Penwest Pharmaceuticals Co., priority 2010, published 2011).

System: mitochondrial function
Settings: in vitro; compared with CoQ10; background statement, no data

Question: Which “potency in enhancing mitochondrial function” value does the source give for `CC1=C(C)C(=O)C(CC[C@](C)(O)CCC[C@H](C)CCC[C@H](C)CCCC(C)C)=C(C)C1=O` [R,R,R-alpha-tocopherolquinone] here?
Answer: The value was “far more potent than CoQ^10”.
